Starred links: 1 amine or outer side, 2 acyl side, 3 side chain; linkers in the order of their positions; H or OH if unused. Positions of bridges follow the written chain, without caps; N, C: chain ends. Non-standard residues stand in square brackets, D forms with d. Residues, ends and D or L forms follow the SMILES beside them. *: point of attachment. NMeAbu(3,3-F2-piperidino) = CN[C@@H](CCN1CCCC(F)(F)C1)C(=O)O; X6 = CN([C@@H](CCN1CCC(F)(F)CC1)C(=O)[*:2])[*:1]; 3Pal(6-NMe2) = CN(C)c1ccc(C[C@H](N)C(=O)O)cn1; NMePhe(3-Cl) = CN[C@@H](Cc1cccc(Cl)c1)C(=O)O; N(isopentyl)Gly = CC(C)CCNCC(=O)O; NMeF = CN[C@@H](Cc1ccccc1)C(=O)O; NMeGABA = CN(CCCC(=O)[*:2])[*:1]; NMeL = CN[C@@H](CC(C)C)C(=O)O; NMeV = CN[C@H](C(=O)O)C(C)C; NMeA = CN[C@@H](C)C(=O)O; Piperidide = C1CCN(*)CC1; NBuGly = CCCCNCC(=O)O; Isopentyl = CC(C)CC*; Sar = CNCC(=O)O; tBu = CC(C)(C)*

A short description of one series: Caco-2 membrane permeability, improved method as used in the following Examples (96-well, 20 to 24 h preincubation). The class given is in vitro ADME. As to conditions: human, Caco-2, Caco-2. An outline of the steps:
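Caco-2 monolayers were grown three weeks and preincubated 20–24 h at 37 °C with compound in DMEM+FaSSIF (1% DMSO) apically. The assay then used compound in FaSSIF/HBSS (1% DMSO, pH 6.0) apically and HBSS with 4% BSA (pH 7.4) basally. Basal samples were taken at 180 min for LC/MS, and Papp (cm/sec) was calculated.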
In general terms: Caco-2 monolayers are a common model of the intestinal barrier.
Compound `CCCCN1CC(=O)N(C)[C@@H](C(C)C)C(=O)N[C@@H](CC(C)C)C(=O)N(C)[C@@H](Cc2ccccc2)C(=O)N(C)[C@@H](CCN2CCCC(F)(F)C2)C(=O)N[C@H](C(=O)N2CCCCC2)CC(=O)N[C@H](C)C(=O)N(C)[C@@H](Cc2ccccc2)C(=O)N[C@@H](CC(C)C)C(=O)N(C)[C@@H](CC(C)C)C(=O)N[C@@H]([C@@H](C)O)C1=O` [pd388] ([dA][NMeF]L[NMeL]T[NBuGly][NMeV]L[NMeF][NMeAbu(3,3-F2-piperidino)]D-Piperidide; lactam N-11) yielded a Papp A→B at 180 min of 1.8 ×10⁻⁶ cm/s.
`CC(C)C[C@@H]1NC(=O)[C@H](Cc2ccccc2)N(C)C(=O)[C@H](Cc2ccccc2)N(C)C(=O)[C@H](CC(C)C)NC(=O)[C@H](CC(C)C)N(C)C(=O)CCCN(C)C(=O)C[C@@H](C(=O)N2CCCCC2)NC(=O)[C@H](C)N(C)C(=O)[C@H](CCN2CCCC(F)(F)C2)N(C)C(=O)[C@H]([C@@H](C)O)NC(=O)[C@H](CC(C)C)N(C)C1=O` [pd390] ([NMeGABA][NMeL]L[NMeF][NMeF]L[NMeL]T[NMeAbu(3,3-F2-piperidino)][NMeA]D-Piperidide; lactam N-11) yielded a Papp A→B at 180 min of 2 ×10⁻⁶ cm/s.
Consider `CC(C)C[C@@H]1NC(=O)[C@H](C)N(C)C(=O)C[C@@H](C(=O)N2CCCCC2)NC(=O)[C@H](C(C)C)N(C)C(=O)CN(C)C(=O)[C@H]([C@@H](C)O)NC(=O)[C@H](CCN2CCCC(F)(F)C2)N(C)C(=O)[C@H](Cc2ccccc2)N(C)C(=O)[C@H](CC(C)C)NC(=O)[C@H](Cc2ccccc2)N(C)C(=O)[C@H](CC(C)C)N(C)C1=O` [pd391] ([NMeA]L[NMeL][NMeF]L[NMeF][NMeAbu(3,3-F2-piperidino)]T[Sar][NMeV]D-Piperidide; lactam N-11), for which the Papp A→B at 180 min is 2.4 ×10⁻⁶ cm/s.
Still for that read-out and setting: the value for `CCCCN1CC(=O)N(C)[C@@H](CCN2CCCC(F)(F)C2)C(=O)N[C@H](C(=O)N2CCCCC2)CC(=O)N(C)[C@@H](C)C(=O)N[C@@H](CC(C)C)C(=O)N(C)[C@@H](CC(C)C)C(=O)N(C)[C@@H](Cc2ccccc2)C(=O)N[C@@H](CC(C)C)C(=O)N(C)[C@@H](Cc2ccccc2)C(=O)N(C)[C@@H](C)C(=O)N[C@@H]([C@@H](C)O)C1=O` [pd392] ([NMeA]L[NMeL][NMeF]L[NMeF][NMeA]T[NBuGly][NMeAbu(3,3-F2-piperidino)]D-Piperidide; lactam N-11) was 3.5 ×10⁻⁶ cm/s; that for `CC(C)CCOC[C@@H]1NC(=O)[C@H](CCN2CCCC(F)(F)C2)N(C)C(=O)[C@H](Cc2ccccc2)N(C)C(=O)CN(C)C(=O)[C@H]([C@@H](C)O)NC(=O)[C@H](CC(C)C)N(C)C(=O)[C@H](CC(C)C)NC(=O)[C@H](Cc2ccccc2)N(C)C(=O)CN(C)C(=O)C[C@@H](C(=O)N2CCCCC2)NC(=O)[C@H](CC(C)C)N(C)C1=O` [pd393] ([Sar][NMeF]L[NMeL]T[Sar][NMeF][NMeAbu(3,3-F2-piperidino)]S(Isopentyl)[NMeL]D-Piperidide; lactam N-11) was 2.5 ×10⁻⁶ cm/s.
As to `CCCCN1CC(=O)N(C)[C@@H](CC(C)C)C(=O)N[C@@H](CC(C)C)C(=O)N(C)[C@@H](Cc2ccccc2)C(=O)N(C)[C@@H](C)C(=O)N[C@H](C(=O)N2CCCCC2)CC(=O)N[C@H](C(C)C)C(=O)N(C)[C@@H](Cc2ccccc2)C(=O)N[C@@H](CC(C)C)C(=O)N(C)[C@@H](CCN2CCC(F)(F)CC2)C(=O)N[C@@H]([C@@H](C)O)C1=O` [pd394] ([dV][NMeF]L[X6]T[NBuGly][NMeL]L[NMeF][NMeA]D-Piperidide; lactam N-11), the Papp A→B at 180 min was determined as 1.8 ×10⁻⁶ cm/s.
Take `CCCCN1CC(=O)N(C)[C@@H](Cc2ccccc2)C(=O)N[C@@H](CC(C)C)C(=O)N(C)[C@@H](CC(C)C)C(=O)N[C@@H]([C@@H](C)O)C(=O)N(C)CC(=O)N(C)[C@@H](Cc2ccccc2)C(=O)N(C)[C@@H](CCN2CCC(F)(F)CC2)C(=O)N[C@@H](CC(C)C)C(=O)N(C)[C@@H](C(C)C)C(=O)N[C@H](C(=O)N2CCCCC2)CC1=O` [pd395] ([NBuGly][NMeF]L[NMeL]T[Sar][NMeF][X6]L[NMeV]D-Piperidide; lactam N-11): the Papp A→B at 180 min was determined as 1.7 ×10⁻⁶ cm/s.
Regarding `CC(C)CCN1CC(=O)N(C)[C@@H](CC(C)C)C(=O)N[C@@H](COC(C)(C)C)C(=O)N(C)[C@@H](Cc2ccccc2)C(=O)N(C)[C@@H](C(C)C)C(=O)N[C@H](C(=O)N2CCCCC2)CC(=O)N[C@H](C)C(=O)N(C)[C@@H](CC(C)C)C(=O)N[C@@H](Cc2ccc(N(C)C)nc2)C(=O)N(C)[C@@H](CC(C)C)C(=O)N[C@@H]([C@@H](C)O)C1=O` [pd396] ([dA][NMeL][3Pal(6-NMe2)][NMeL]T[N(isopentyl)Gly][NMeL]S(tBu)[NMeF][NMeV]D-Piperidide; lactam N-11), the Papp A→B at 180 min came to 1.5 ×10⁻⁶ cm/s.
The compound `CC(C)C[C@@H]1NC(=O)[C@H](CC(C)C)N(C)C(=O)CCCN(C)C(=O)C[C@@H](C(=O)N2CCCCC2)NC(=O)[C@H](CC(C)C)N(C)C(=O)[C@H](CC(C)C)N(C)C(=O)[C@H]([C@@H](C)O)NC(=O)[C@H](CC(C)C)N(C)C(=O)[C@H](Cc2ccc(N(C)C)nc2)NC(=O)[C@H](Cc2ccccc2)N(C)C(=O)[C@H](CC(C)C)N(C)C1=O` [pd397] ([NMeGABA][NMeL]L[NMeL][NMeF][3Pal(6-NMe2)][NMeL]T[NMeL][NMeL]D-Piperidide; lactam N-11) registered a Papp A→B at 180 min of 1.2 ×10⁻⁶ cm/s.
For `CCCCN1CC(=O)N(C)[C@@H](C)C(=O)N[C@H](C(=O)N2CCCCC2)CC(=O)N(C)[C@@H](C(C)C)C(=O)N[C@@H](CC(C)C)C(=O)N(C)[C@@H](CC(C)C)C(=O)N(C)[C@@H](Cc2cccc(Cl)c2)C(=O)N[C@@H](Cc2ccc(N(C)C)nc2)C(=O)N(C)[C@@H](C)C(=O)N(C)[C@@H](CC(C)C)C(=O)N[C@@H]([C@@H](C)O)C1=O` [pd399] ([NMeV]L[NMeL][NMePhe(3-Cl)][3Pal(6-NMe2)][NMeA][NMeL]T[NBuGly][NMeA]D-Piperidide; lactam N-11), the Papp A→B at 180 min was 1.5 ×10⁻⁶ cm/s.
`CCCCN1CC(=O)N(C)[C@@H](CC(C)C)C(=O)N[C@H](C(=O)N2CCCCC2)CC(=O)N(C)[C@@H](C)C(=O)N[C@@H](Cc2ccc(N(C)C)nc2)C(=O)N(C)[C@@H](C)C(=O)N(C)[C@@H](C)C(=O)N[C@@H](CC(C)C)C(=O)N(C)[C@@H](Cc2cccc(Cl)c2)C(=O)N(C)[C@@H](CC(C)C)C(=O)N[C@@H]([C@@H](C)O)C1=O` [pd400] ([NMeA][3Pal(6-NMe2)][NMeA][NMeA]L[NMePhe(3-Cl)][NMeL]T[NBuGly][NMeL]D-Piperidide; lactam N-11): the Papp A→B at 180 min came out at 2.3 ×10⁻⁶ cm/s.

Still in this series, the particulars now being: human; Papp, Caco-2 membrane permeability, improved method; read-out: Caco-2.
With `CCCCN1CC(=O)N(C)[C@@H](CC(C)C)C(=O)N[C@H](C(=O)N2CCCCC2)CC(=O)N(C)[C@@H](C)C(=O)N[C@@H](Cc2ccc(N(C)C)nc2)C(=O)N(C)[C@@H](CC(C)C)C(=O)N(C)[C@@H](Cc2ccccc2)C(=O)N[C@@H](CC(C)C)C(=O)N(C)[C@@H](C)C(=O)N(C)[C@@H](CC(C)C)C(=O)N[C@@H]([C@@H](C)O)C1=O` [pd398] ([NMeA][3Pal(6-NMe2)][NMeL][NMeF]L[NMeA][NMeL]T[NBuGly][NMeL]D-Piperidide; lactam N-11), the Papp A→B at 180 min worked out at 2.7 ×10⁻⁶ cm/s.

The values are drawn from patent publication US20200131669A1, “CYCLIC PEPTIDE COMPOUND HAVING HIGH MEMBRANE PERMEABILITY, AND LIBRARY CONTAINING SAME” (Chugai Seiyaku Kabushiki Kaisha, priority 2017, published 2020).
